Test results from US20220323406A1, “METHODS AND COMPOSITIONS FOR DIFFERENTIATING STEM CELLS” (Massachusetts Institute of Technology, priority 2019, published 2022).
Counter-ions that a name gives are not always drawn.

Key:
[1] = tested on: ENR+CD organoids (ISC to Paneth cell differentiation); assay: Primary screen: basal (non-stimulated) lysozyme secretion LYZ.NS, 2.5-D 384-well ENR+CD organoid differentiation; assay type: cell-based, mouse
From the text: (§1) High-throughput screening.

ENR+CD organoids = assay: Primary screen: ATP (CellTiter-Glo 3D, CTG) cell number/viability, 2.5-D 384-well ENR+CD organoids;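 further: compounds given at plating and again on day 3 over a 6-day differentiation from ENR+CV stem-cell-enriched precursors, ATP measured on day 6, plate median as control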
[2] = tested on: ENR+CD organoids (ISC to Paneth cell differentiation); assay: Primary screen: CCh-stimulated lysozyme secretion LYZ.S, 2.5-D 384-well ENR+CD organoid differentiation; assay type: cell-based, mouse; conditions: primary screen
From the text: as §1

[3] = primary screen, standard z score, dose 0.08 uM
[4] = primary screen, standard z score, dose 0.40 uM
[5] = primary screen, standard z score, dose 2.00 uM
[6] = primary screen, standard z score, dose 10.00 uM
[7] = primary screen, dose 0.08 uM, FC relative to plate median
[8] = primary screen, dose 0.08 uM, standard z score
[9] = primary screen, dose 0.40 uM, FC relative to plate median
[10] = primary screen, dose 0.40 uM, standard z score
[11] = primary screen, dose 2.00 uM, FC relative to plate median
[12] = primary screen, dose 2.00 uM, standard z score
[13] = primary screen, dose 10.00 uM, FC relative to plate median
[14] = primary screen, dose 10.00 uM, standard z score
[15] = dose 0.08 uM, FC relative to plate median
[16] = dose 0.40 uM, FC relative to plate median
[17] = dose 2.00 uM, FC relative to plate median
[18] = dose 10.00 uM, FC relative to plate median

SMILES	Dose.FC.LYZ.NS ([1]; primary screen, dose 0.08 uM) [log2 fold change]	Z.LYZ.NS (standard z score) ([1]; primary screen, dose 0.08 uM)	Dose.FC.LYZ.NS ([1]; primary screen, dose 0.40 uM) [log2 fold change]	Dose.FC.LYZ.NS ([1]; primary screen, dose 2.00 uM) [log2 fold change]	Dose.FC.LYZ.NS ([1]; primary screen, dose 10.00 uM) [log2 fold change]	Dose.FC.CTG (ENR+CD organoids; primary screen, dose 0.08 uM) [log2 fold change]	Dose.FC.CTG (ENR+CD organoids; primary screen, dose 0.40 uM) [log2 fold change]	Dose.FC.CTG (ENR+CD organoids; primary screen, dose 2.00 uM) [log2 fold change]	Dose.FC.CTG (ENR+CD organoids; primary screen, dose 10.00 uM) [log2 fold change]	Dose.FC.LYZ.S ([2]; dose 0.08 uM) [log2 fold change]	Dose.FC.LYZ.S ([2]; dose 0.40 uM) [log2 fold change]	Dose.FC.LYZ.S ([2]; dose 2.00 uM) [log2 fold change]	Dose.FC.LYZ.S ([2]; dose 10.00 uM) [log2 fold change]	Z.LYZ.NS [1, 3]	Z.LYZ.NS [1, 4]	Z.LYZ.NS [1, 5]	Z.LYZ.NS [1, 6]	further results
CCCCNc1ncc(-c2ccc(CN3CCOCC3)cn2)c(NC2CCC(O)CC2)n1 (centres unmarked) [UNC2250]	0.115	1.005	0.067	0.085	−0.153	0.265	0.279	0.105	−0.064	0.142	0.113	0.134	−0.205	–	–	–	–	Z.LYZ.NS (standard z score) ([1]; primary screen, dose 0.40 uM): 0.587; Z.LYZ.NS (standard z score) ([1]; primary screen, dose 2.00 uM): 0.744; Z.LYZ.NS (standard z score) ([1]; primary screen, dose 10.00 uM): −1.336; Z.CTG (standard z score) (ENR+CD organoids; primary screen, dose 0.08 uM): 0.633; Z.CTG (standard z score) (ENR+CD organoids; primary screen, dose 0.40 uM): 0.667; Z.CTG (standard z score) (ENR+CD organoids; primary screen, dose 2.00 uM): 0.250; Z.CTG (standard z score) (ENR+CD organoids; primary screen, dose 10.00 uM): −0.153
CCNC(=O)c1noc(-c2cc(C(C)C)c(O)cc2O)c1-c1ccc(CN2CCOCC2)cc1 [AUY922 (NVP-AUY922)]	−0.144	−1.251	−0.154	−0.138	−0.153	−1.185	−1.343	−1.137	−1.270	−0.209	−0.184	−0.216	−0.214	–	–	–	–	Z.LYZ.NS (standard z score) ([1]; primary screen, dose 0.40 uM): −1.343; Z.LYZ.NS (standard z score) ([1]; primary screen, dose 2.00 uM): −1.200; Z.LYZ.NS (standard z score) ([1]; primary screen, dose 10.00 uM): −1.330; Z.CTG (standard z score) (ENR+CD organoids; primary screen, dose 0.08 uM): −2.830; Z.CTG (standard z score) (ENR+CD organoids; primary screen, dose 0.40 uM): −3.208; Z.CTG (standard z score) (ENR+CD organoids; primary screen, dose 2.00 uM): −2.715; Z.CTG (standard z score) (ENR+CD organoids; primary screen, dose 10.00 uM): −3.032
CC(C)n1c(/C=C/C(O)CC(O)CC(=O)O)c(-c2ccc(F)cc2)c2ccccc21 (centres unmarked) [Fluvastatin Sodium]	0.112	–	−0.146	−0.203	−0.159	−0.161	−0.482	−1.111	−1.761	0.026	−0.177	−0.293	−0.267	0.979	−1.275	−1.764	−1.388	–
COc1cc2c(cc1OC)[C@@H]1Cc3ccc(OC)c(OC)c3CN1CC2 [Rotundine]	–	–	–	–	–	–	–	–	–	–	–	–	–	–	–	–	–	Dose.FC.LYZ.NS [1, 7]: 0.124 log2 fold change; Z.LYZ.NS [1, 8]: 1.082; Dose.FC.LYZ.NS [1, 9]: 0.032 log2 fold change; Z.LYZ.NS [1, 10]: 0.282; Dose.FC.LYZ.NS [1, 11]: 0.072 log2 fold change; Z.LYZ.NS [1, 12]: 0.623; Dose.FC.LYZ.NS [1, 13]: 0.126 log2 fold change; Z.LYZ.NS [1, 14]: 1.100; Dose.FC.CTG (ENR+CD organoids; [7]): 0.359 log2 fold change; Dose.FC.CTG (ENR+CD organoids; [9]): 0.343 log2 fold change; Dose.FC.CTG (ENR+CD organoids; [11]): 0.190 log2 fold change; Dose.FC.CTG (ENR+CD organoids; [13]): 0.227 log2 fold change; Dose.FC.LYZ.S [2, 15]: 0.151 log2 fold change; Dose.FC.LYZ.S [2, 16]: 0.049 log2 fold change; Dose.FC.LYZ.S [2, 17]: 0.080 log2 fold change; Dose.FC.LYZ.S [2, 18]: 0.095 log2 fold change
CCCCN1CCCCC1C(=O)Nc1c(C)cccc1C (centres unmarked) [Bupivacaine HCl]	0.002	0.016	−0.100	−0.137	−0.195	−0.003	−0.217	−0.300	−0.364	0.082	−0.169	−0.210	−0.295	–	−0.871	−1.196	−1.700	–
C=C[C@@]1(C)CC(=O)[C@]2(O)[C@@]3(C)[C@@H](O)CCC(C)(C)[C@@H]3[C@H](O)[C@H](OC(C)=O)[C@@]2(C)O1 [Forskolin]	−0.007	–	0.159	0.191	0.219	−0.213	−0.175	−0.330	−0.119	−0.004	0.237	0.102	0.128	−0.058	1.381	1.661	1.905	–
CCCN[C@H]1CCc2nc(N)sc2C1 [Pramipexole]	–	–	–	–	–	–	–	–	–	–	–	–	–	–	–	–	–	Dose.FC.LYZ.NS [1, 7]: 0.057 log2 fold change; Z.LYZ.NS [1, 8]: 0.495; Dose.FC.LYZ.NS [1, 9]: 0.027 log2 fold change; Z.LYZ.NS [1, 10]: 0.234; Dose.FC.LYZ.NS [1, 11]: 0.027 log2 fold change; Z.LYZ.NS [1, 12]: 0.239; Dose.FC.LYZ.NS [1, 13]: 0.005 log2 fold change; Z.LYZ.NS [1, 14]: 0.043; Dose.FC.CTG (ENR+CD organoids; [7]): 0.109 log2 fold change; Dose.FC.CTG (ENR+CD organoids; [9]): 0.182 log2 fold change; Dose.FC.CTG (ENR+CD organoids; [11]): 0.026 log2 fold change; Dose.FC.CTG (ENR+CD organoids; [13]): 0.231 log2 fold change; Dose.FC.LYZ.S [2, 15]: 0.050 log2 fold change; Dose.FC.LYZ.S [2, 16]: 0.123 log2 fold change; Dose.FC.LYZ.S [2, 17]: 0.041 log2 fold change; Dose.FC.LYZ.S [2, 18]: 0.071 log2 fold change
Nc1ncnc2n[nH]c(Nc3ccc(F)cc3)c12 [CGP57380]	0.218	–	−0.041	−0.055	−0.037	0.108	−0.293	−0.460	0.055	0.096	0.054	−0.095	−0.088	1.900	−0.354	−0.477	−0.321	Z.CTG (ENR+CD organoids; [3]): 0.258; Z.CTG (ENR+CD organoids; [4]): −0.700; Z.CTG (ENR+CD organoids; [5]): −1.098; Z.CTG (ENR+CD organoids; [6]): 0.132
COc1cc(OC2CCN(C)CC2)ccc1Nc1ncc2c(n1)n(C1CCCC1)c(=O)n2C [AZ 3146]	0.073	0.639	−0.038	−0.079	−0.281	−0.130	−0.262	−0.369	−1.168	0.049	−0.067	−0.130	−0.422	–	–	–	–	Z.LYZ.NS (standard z score) ([1]; primary screen, dose 0.40 uM): −0.327; Z.LYZ.NS (standard z score) ([1]; primary screen, dose 2.00 uM): −0.687; Z.LYZ.NS (standard z score) ([1]; primary screen, dose 10.00 uM): −2.447; Z.CTG (standard z score) (ENR+CD organoids; primary screen, dose 0.08 uM): −0.310; Z.CTG (standard z score) (ENR+CD organoids; primary screen, dose 0.40 uM): −0.626; Z.CTG (standard z score) (ENR+CD organoids; primary screen, dose 2.00 uM): −0.881; Z.CTG (standard z score) (ENR+CD organoids; primary screen, dose 10.00 uM): −2.789
Cc1cc(NC(=O)Nc2ccc(N(C)C)cc2)c2cc(F)cc(F)c2n1 [SB408124]	–	–	–	–	–	–	–	–	–	–	–	–	–	–	–	–	–	Dose.FC.LYZ.NS [1, 7]: 0.172 log2 fold change; Z.LYZ.NS [1, 8]: 1.494; Dose.FC.LYZ.NS [1, 9]: 0.134 log2 fold change; Z.LYZ.NS [1, 10]: 1.168; Dose.FC.LYZ.NS [1, 11]: 0.084 log2 fold change; Z.LYZ.NS [1, 12]: 0.730; Dose.FC.LYZ.NS [1, 13]: −0.070 log2 fold change; Z.LYZ.NS [1, 14]: −0.607; Dose.FC.CTG (ENR+CD organoids; [7]): 0.410 log2 fold change; Z.CTG (ENR+CD organoids; [8]): 0.978; Dose.FC.CTG (ENR+CD organoids; [9]): 0.334 log2 fold change; Z.CTG (ENR+CD organoids; [10]): 0.799; Dose.FC.CTG (ENR+CD organoids; [11]): 0.364 log2 fold change; Z.CTG (ENR+CD organoids; [12]): 0.869; Dose.FC.CTG (ENR+CD organoids; [13]): 0.091 log2 fold change; Z.CTG (ENR+CD organoids; [14]): 0.216; Dose.FC.LYZ.S [2, 15]: 0.198 log2 fold change; Dose.FC.LYZ.S [2, 16]: 0.193 log2 fold change; Dose.FC.LYZ.S [2, 17]: 0.082 log2 fold change; Dose.FC.LYZ.S [2, 18]: −0.148 log2 fold change
COc1cccc(C=NCCN=Cc2cccc(OC)c2[O-])c1[O-].[Cl-].[Mn+3] [EUK 134]	0.068	–	0.003	0.028	−0.085	−0.015	−0.162	0.091	−0.024	0.025	0.057	−0.034	−0.132	0.594	0.026	0.247	−0.741	Z.CTG (ENR+CD organoids; [3]): −0.035; Z.CTG (ENR+CD organoids; [4]): −0.387; Z.CTG (ENR+CD organoids; [5]): 0.217; Z.CTG (ENR+CD organoids; [6]): −0.057
